Patent US20230095026A1, “METHOD FOR STIMULATING AND INDUCING CHANGES IN ENVIRONMENT AROUND AGED SKIN CELLS” (AMOREPACIFIC CORPORATION, priority 2019, published 2023)

Tests used:
pigment-forming cells = assay: Change in morphology and cell number of UVB-aged pigment-forming cells, SA-β-gal staining; format: cell-based, human
Description: Subsequently, the cells were treated with a compound represented by Chemical Formula E (Sigma-Aldrich Co., Ltd.).

Fibroblast cells = assay: Change in the number of UVB-aged fibroblast cells, SA-β-gal staining; format: cell-based, human

Compound: O=C(O)[C@]1(O)C[C@@H](O)[C@@H](O)[C@H](O)C1 [Chemical Formula E]
- number of cells (pigment-forming cells; UVB-aged pigment-forming cells treated with the compound, FIGS. 1 and 2): the number of cells increased again
- ratio of the number of the aged cells stained with SA-β-gal to the total number of cells (pigment-forming cells; UVB-aged pigment-forming cells, FIG. 3): decreased depending on the concentration
- number of cells (Fibroblast cells; UVB-aged fibroblasts treated with the compound, FIGS. 4 and 5): the number of cells increased again depending on the concentration
- ratio of the number of the aged cells stained with SA-β-gal to the total number of cells (Fibroblast cells; UVB-aged fibroblasts, FIG. 6): decreased depending on the concentration
